Data set [1] in a line: Cytotoxicity against human CEM cells assessed as inhibition of uninfected cells proliferation. The class given is cell-based. The note with it: CEM (CCRF-CEM) cells, read-out: TC50 (the source's name).
Data set [2] in a line: Selectivity index, ratio of TC50 for human CEM cells to EC50 for SIV-induced syncytium. The arrangement: species or system CCRF-CEM.
In data set [3] the test system is Human immunodeficiency virus 1. The data set can be described thus: Inhibition of HIV1 Tat-TAR interaction-mediated transactivation in human 293T cells assessed as CAT gene expression at 30 uM after 24 hrs by ELISA. Type of data set: functional. The note with it: Human immunodeficiency virus 1, HEK-293T.
Data set [4] concerns Simian immunodeficiency virus. The data set can be described thus: Antiviral activity against SIV-induced syncytium in human CEM cells assessed as inhibition of virus-induced cytopathogenicity after 5 days. Type of data set: functional, organism-based. The note with it: CCRF-CEM, 120 h.

Data on 24 compounds can be found in ChEMBL document CHEMBL1139402, “Design and SAR of new substituted purines bearing aryl groups at N9 position as HIV-1 Tat-TAR interaction inhibitors” (Bioorg Med Chem, 2008).

Where only a bound is given, the exact number is not on record here.

The inhibition is the drop in the measured response relative to a control, in per cent. By EC50 is commonly meant the concentration at which the effect is half-maximal. For the compound `CCN(CC)c1nc(C)c2nc(SCC(=O)NCCCN)n(CCNc3ncnc4[nH]cnc34)c2n1`, the CC50 in data set [1] is over 100 µM. The Ratio in data set [2] was over 18.2. The inhibition at 30 µM in data set [3] worked out at 52.3%. Also, the EC50 in data set [4] worked out at 5.5 µM.

Regarding `CCN(CC)c1nc(C)c2nc(SCC(=O)NCCN)n(CCCN3CCOCC3)c2n1`, the CC50 in data set [1] turned out to be 64.8 µM. The Ratio in data set [2] was found to be 5.2. In addition, the inhibition at 30 µM in data set [3] amounted to 80.4%. Moreover, the EC50 in data set [4] turned out to be 12.4 µM.

Take `CCN(CC)c1nc(C)c2nc(SCC(=O)NCCNC(=N)N)n(CCn3cncn3)c2n1`: the CC50 in data set [1] is over 100 µM. In addition, the Ratio in data set [2] is given as over 8.1. The EC50 in data set [4] worked out at 12.4 µM.

In the case of `CCN(CC)c1nc(C)c2nc(SCC(=O)NCCNC(=N)N)n(CCCn3cncn3)c2n1`, the CC50 in data set [1] was over 100 µM. The Ratio in data set [2] was over 18.5. Moreover, in data set [3], the inhibition at 30 µM was 48.2%. Besides, the EC50 in data set [4] was found to be 5.4 µM.

With `CCN(CC)c1nc(C)c2nc(SCC(=O)NCCN)n(CCNc3nc(N)nc4[nH]cnc34)c2n1`, in data set [1], the CC50 is over 100 µM. Besides, the Ratio in data set [2] is recorded as over 5. For the same compound, the EC50 in data set [4] amounted to 20 µM.

Consider `CCN(CC)c1nc(C)c2nc(SCC(=O)NCCCN)n(CCc3c[nH]c4ccccc34)c2n1`, for which the CC50 in data set [1] is 10.2 µM. Also, the Ratio in data set [2] turned out to be 2.4. Besides, the EC50 in data set [4] stood at 4.2 µM.

For `CCN(CC)c1nc(C)c2nc(SCC(=O)NCCCN)n(CCCN3CCOCC3)c2n1`, the CC50 in data set [1] was 87.5 µM. The Ratio in data set [2] is 7.4. For the same compound, the inhibition at 30 µM in data set [3] was found to be 83%. The EC50 in data set [4] stood at 11.8 µM.

For the compound `CCN(CC)c1nc(C)c2nc(SCC(=O)NCCN)n(CCc3c[nH]c4ccccc34)c2n1`, in data set [1], the CC50 was found to be 6.5 µM. Further, the Ratio in data set [2] stood at 4.1. Further, the EC50 in data set [4] came out at 1.6 µM.

As for `CCN(CC)c1nc(C)c2nc(SCC(=O)NCCCNC(=N)N)n(CCn3cncn3)c2n1`, the CC50 in data set [1] is over 100 µM. The Ratio in data set [2] is over 14.1. Further, the EC50 in data set [4] was determined as 7.1 µM.

As for `CCN(CC)c1nc(C)c2nc(SCC(=O)NCCCNC(=N)N)n(CCc3c[nH]c4ccccc34)c2n1`, the CC50 in data set [1] was 29.1 µM. For the same compound, the Ratio in data set [2] was determined as 5.2. In addition, the EC50 in data set [4] came to 5.6 µM.

`CCN(CC)c1nc(C)c2nc(SCC(=O)NCCCN)n(CCCn3cncn3)c2n1`: the CC50 in data set [1] is 31.7 µM. Moreover, the Ratio in data set [2] was 3.6. In addition, the EC50 in data set [4] amounted to 8.9 µM.

`CCN(CC)c1nc(C)c2nc(SCC(=O)NCCCNC(=N)N)n(CCNc3nc(N)nc4[nH]cnc34)c2n1`: in data set [1], the CC50 is over 100 µM. Besides, the Ratio in data set [2] is recorded as over 12. Moreover, the EC50 in data set [4] was 8.3 µM.

Turning to `CCN(CC)c1nc(C)c2nc(SCC(=O)NCCCNC(=N)N)n(CCCn3cncn3)c2n1`, in data set [1], the CC50 is over 100 µM. In addition, the Ratio in data set [2] is given as over 17.2. For the same compound, in data set [4], the EC50 is 5.8 µM.

For the compound `CCN(CC)c1nc(C)c2nc(SCC(=O)NCCCNC(=N)N)n(CCNc3ncnc4[nH]cnc34)c2n1`, in data set [1], the CC50 is over 100 µM. Also, the Ratio in data set [2] was over 7.7. For the same compound, in data set [3], the inhibition at 30 µM is 58.6%. Besides, the EC50 in data set [4] was 13 µM.

For the compound `CCN(CC)c1nc(C)c2nc(SCC(=O)NCCNC(=N)N)n(CCNc3nc(N)nc4[nH]cnc34)c2n1`, the CC50 in data set [1] is over 100 µM. In data set [2], the Ratio was over 16.4. Also, the EC50 in data set [4] came out at 6.1 µM.

On to `CCN(CC)c1nc(C)c2nc(SCC(=O)NCCNC(=N)N)n(CCc3c[nH]c4ccccc34)c2n1`, for which, in data set [1], the CC50 was 29.5 µM. The Ratio in data set [2] amounted to 3.7. Further, the EC50 in data set [4] is 7.9 µM.

With `CCN(CC)c1nc(C)c2nc(SCC(=O)NCCCN)n(CCn3cncn3)c2n1`, the CC50 in data set [1] was over 100 µM. For the same compound, the Ratio in data set [2] is on record as over 8.7. Besides, the EC50 in data set [4] is 11.5 µM.

As for `CCN(CC)c1nc(C)c2nc(SCC(=O)NCCN)n(CCCn3cncn3)c2n1`, the CC50 in data set [1] is over 100 µM. Further, the Ratio in data set [2] is over 14.5. The inhibition at 30 µM in data set [3] worked out at 48.2%. Moreover, the EC50 in data set [4] came to 6.9 µM.

Consider `CCN(CC)c1nc(C)c2nc(SCC(=O)NCCNC(=N)N)n(CCCN3CCOCC3)c2n1`, for which the CC50 in data set [1] was over 100 µM. In data set [2], the Ratio was over 5.3. The inhibition at 30 µM in data set [3] was found to be 81.8%. The EC50 in data set [4] was 18.9 µM.

Take `CCN(CC)c1nc(C)c2nc(SCC(=O)NCCCNC(=N)N)n(CCCN3CCOCC3)c2n1`: the CC50 in data set [1] was over 100 µM. The Ratio in data set [2] was over 8.9. Also, the inhibition at 30 µM in data set [3] was determined as 48.2%. In data set [4], the EC50 was found to be 11.2 µM.

Consider `CCN(CC)c1nc(C)c2nc(SCC(=O)NCCCN)n(CCNc3nc(N)nc4[nH]cnc34)c2n1`, for which the CC50 in data set [1] was over 100 µM. Moreover, the Ratio in data set [2] is over 15.4. Moreover, the EC50 in data set [4] came to 6.5 µM.

Regarding `CCN(CC)c1nc(C)c2nc(SCC(=O)NCCN)n(CCn3cncn3)c2n1`, the CC50 in data set [1] is over 100 µM. The Ratio in data set [2] is listed as over 7.2. Moreover, the concentration giving a half-maximal response (EC50) in data set [4] was found to be 13.8 µM.

With `CCN(CC)c1nc(C)c2nc(SCC(=O)NCCN)n(CCNc3ncnc4[nH]cnc34)c2n1`, the CC50 in data set [1] is over 100 µM. Also, the Ratio in data set [2] is over 40. In addition, the inhibition at 30 µM in data set [3] was 48.2%. Besides, the EC50 in data set [4] stood at 2.5 µM.

In the case of `CCN(CC)c1nc(C)c2nc(SCC(=O)NCCNC(=N)N)n(CCNc3ncnc4[nH]cnc34)c2n1`, the CC50 in data set [1] stood at 92.7 µM. Also, in data set [2], the Ratio amounted to 11.9. Also, the inhibition at 30 µM in data set [3] was 48.2%. Besides, the EC50 in data set [4] is 7.8 µM.
